# Experimental data taken from US10526292B2 (Parion Sciences, Inc., priority 2012, dated 2020).
# Assays:
# Muc5B = Muc5B (Homo sapiens, UniProt Q9HC84); details: in vitro; cited from earlier work
# [1] = In vitro drug metabolism: plasma stability, rabbit; format: in vitro ADME; details: 2.5 μM, 37° C., up to six hours
# Method: (§1) The metabolic stability of 9 and 15 was assessed in plasma (rat, rabbit, dog and human) and hepatocytes (rat and dog). Compounds were added either directly to plasma or to hepatocyte suspensions at a final concentration of 2.5 or 10 μM, respectively, and incubated at 37° C. for up to six hours. Aliquots were removed at various time points and quenched. The amount of parent compound was quantified via UPLC-fluorescence analysis. The amount of parent compound remaining was calculated based on the total peak area at the time of sampling divided by the total peak area at initiation.
# [2] = Confocal microscopy assay of amiloride congener transport; format: in vitro ADME; details: applied to apical (epithelial) surface of mouse corneas, one hour at 37 C
# Excerpt: Serial x-y images were obtained one hour post-drug addition by confocal microsopy.
# ExLac rats = assay: Tear volume in rat model of dry eye disease (lacrimal gland excision, ExLac Model); format: in vivo, Sprague Dawley rats; details: 5 μl test article solution per eye, tear volume by ZoneQuick thread over 6 h
# Method: The effects of compounds on tear volume was assessed in a rat model of dry eye disease in which Sprague Dawley rats undergo surgical lacrimal gland excision (ExLac Model) to reduce normal tear volume. The lacrimal excision reduces normal tear volume by ˜50% (Table 2).
# Both the ipsilateral and contralateral eyes were dosed with 5 μl of test article solution. Tear production was measured using the ZoneQuick cotton thread with impregnated phenol red dye. The folded end of the thread was held in the lateral-ventral conjunctival cul-de-sac for 10 seconds. The length of tear wicking onto the thread was determined by measuring the length of the thread that changes color from yellow to red. Use of a stereomicroscope was assist in the accurate measurement (recorded in millimeters) of the wicking/color change. Tear volume was assessed pre-dose, and 15, 30, 60, 120, and 360 minute post-dose. For reference, the effect of a saline vehicle is shown for ExLac rats and normal (no lacrimal excision surgery) rats.
# [3] = In vitro drug metabolism: plasma stability, dog; format: in vitro ADME; details: 2.5 μM, 37° C., up to six hours
# Method: as §1
# [4] = In vitro drug metabolism: plasma stability, rat; format: in vitro ADME; details: 2.5 μM, 37° C., up to six hours
# Method: as §1
# [5] = In vitro drug metabolism: summary in words for plasma and hepatocytes among the species evaluated; format: in vitro ADME; details: plasma (rat, rabbit, dog, human) and hepatocytes (rat, dog)
# Method: as §1
# [6] = In vitro drug metabolism: plasma stability, human; format: in vitro ADME; details: 2.5 μM, 37° C., up to six hours
# Method: as §1
# [7] = In vitro drug metabolism: hepatocyte stability, rat; format: in vitro ADME; details: rat hepatocyte suspension, 10 μM, 37° C., up to six hours
# Method: as §1
# [8] = In vitro drug metabolism: hepatocyte stability, dog; format: in vitro ADME; details: dog hepatocyte suspension, 10 μM, 37° C., up to six hours
# Method: as §1
Plasma Stability (amount of parent compound remaining) [1],Plasma Stability (amount of parent compound remaining) [3],Plasma Stability (amount of parent compound remaining) [4],Stability towards metabolic hydrolysis in plasma and hepatocytes [5],Plasma Stability (amount of parent compound remaining) [6],Hepatocyte Stability (amount of parent compound remaining) [7],Hepatocyte Stability (amount of parent compound remaining) [8],SMILES,Concentration required to fully reduce Muc5B (Muc5B),"Penetration of the cornea (confocal x-z image, FIG. 16) [2]",6 h Ocular Hydration (AUC0-6) (ExLac rats)
,,,,,,,"CC(=O)N[C@@H](CS)C(=O)O [NAC, N-acetyl cysteine]",200 mM,,
89%,103%,87%,stable towards metabolic hydrolysis,101%,100%,94%,"N=C(N)NCCCC[C@@H](N)C(=O)NCCCN(CCCNC(=O)[C@H](N)CCCCNC(=N)N)CCOc1ccc(CCCCNC(=N)NC(=O)c2nc(Cl)c(N)nc2N)cc1 [Compound 9, (2R,2′R)—N,N′-(3,3′-(2-(4-(4-(3-(3,5-diamino-6-chloropyrazine-2-carbonyl)guanidino)butyl)phenoxy)ethylazanediyl)bis(propane-3,1-diyl))bis(2-amino-6-guanidinohexanamide)]",,remains associated with the apical (epithelial) surface,50.2
